Measured values taken from US9133183B2, “Imidazolidinones and analogs exhibiting anti-cancer and anti-proliferative activities” (Deciphera Pharmaceuticals, LLC, priority 2013, dated 2015).

What was measured:
[1] = molecular target: unphosphorylated PDGFRβ kinase (uPDGFRβ, Seq. ID No. 3) (Homo sapiens (Human), UniProt P09619); assay: Unphosphorylated PDGFRβ kinase assay (coupled pyruvate kinase/lactate dehydrogenase); type: biochemical; settings: enzymatic assay, ATP 500 μM
Procedure, shortened: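 Construct residues 557-1106, unphosphorylated, 15.7 nM, with poly E4Y 2.5 mg/mL and 500 μM ATP, Tris pH 7.5, 1% DMSO, 30 °C. ADP coupled to NADH oxidation via PK/LDH, A340 followed 4 h; rate from 1.5-2.5 h versus no-compound control, IC50 from percent-inhibition series.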

[2] = test system: M-NFS-60 cells; assay: M-NFS-60 cell proliferation assay (resazurin); type: cell-based; settings: 67 h incubation
Procedure, shortened: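 Cells kept in medium containing 20 ng/mL mouse recombinant M-CSF. Fluorescence was read at ex 540/em 600 nm, and IC50 was fitted from percent inhibition across a range of inhibitor concentrations.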

unphosphorylated PDGFRβ kinase (uPDGFRβ, Seq. ID No. 3), sequence (P09619 557-1106): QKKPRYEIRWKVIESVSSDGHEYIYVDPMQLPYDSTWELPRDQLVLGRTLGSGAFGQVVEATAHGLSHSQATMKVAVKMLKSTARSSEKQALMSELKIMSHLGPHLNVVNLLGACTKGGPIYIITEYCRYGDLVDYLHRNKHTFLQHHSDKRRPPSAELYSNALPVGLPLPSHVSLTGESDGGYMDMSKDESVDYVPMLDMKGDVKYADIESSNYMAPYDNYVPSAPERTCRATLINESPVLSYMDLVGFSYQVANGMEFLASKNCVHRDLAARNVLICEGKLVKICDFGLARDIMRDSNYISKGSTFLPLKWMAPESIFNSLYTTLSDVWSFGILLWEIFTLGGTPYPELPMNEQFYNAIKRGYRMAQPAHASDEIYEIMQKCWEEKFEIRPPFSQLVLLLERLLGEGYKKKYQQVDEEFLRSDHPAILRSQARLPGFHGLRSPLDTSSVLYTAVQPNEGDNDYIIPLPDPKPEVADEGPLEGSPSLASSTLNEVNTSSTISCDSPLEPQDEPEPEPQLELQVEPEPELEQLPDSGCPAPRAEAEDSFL

SMILES	IC50 [1] [nM]	IC50 [2] [nM]
Cc1nc(NC(=O)N2CCN(CC(F)(F)F)C2=O)ccc1Oc1ccnc(-c2cnn(C)c2)c1 [Example 43, N-(6-methyl-5-((2-(1-methyl-1H-pyrazol-4-yl)pyridin-4-yl)oxy)pyridin-2-yl)-2-oxo-3-(2,2,2-trifluoroethyl)imidazolidine-1-carboxamide]	> 1000	< 10
COCCCN1CCN(C(=O)Nc2ccc(Oc3ccnc(-c4cnn(C)c4)c3)c(C)n2)C1=O [Example 19, 3-(3-methoxypropyl)-N-(6-methyl-5-((2-(1-methyl-1H-pyrazol-4-yl)pyridin-4-yl)oxy)pyridin-2-yl)-2-oxoimidazolidine-1-carboxamide]	> 1000	10 to 100
Cc1ccc(-c2cc(Oc3ccc(NC(=O)N4CCN(C5CCOCC5)C4=O)nc3C)ccn2)cn1 [Example 54, N-(6-methyl-5-((6′-methyl-[2,3′-bipyridin]-4-yl)oxy)pyridin-2-yl)-2-oxo-3-(tetrahydro-2H-pyran-4-yl)imidazolidine-1-carboxamide]	100 to 1000	10 to 100
Cn1cc(-c2cc(Oc3ccc(NC(=O)N4CCN(CCOC(F)(F)F)C4=O)nc3)ccn2)cn1 [Example 21, N-(5-((2-(1-methyl-1H-pyrazol-4-yl)pyridin-4-yl)oxy)pyridin-2-yl)-2-oxo-3-(2-(trifluoromethoxy)ethyl)imidazolidine-1-carboxamide]	> 1000	10 to 100
Cc1nc(NC(=O)N2CCN(C(C)(C)C)C2=O)ccc1Oc1ccnc(-c2cnn(C)c2)c1 [Example 33, 3-(tert-butyl)-N-(6-methyl-5-((2-(1-methyl-1H-pyrazol-4-yl)pyridin-4-yl)oxy)pyridin-2-yl)-2-oxoimidazolidine-1-carboxamide]	100 to 1000	10 to 100
Cc1nc(NC(=O)N2CCN(C(C)C)C2=O)ccc1Oc1ccnc(-c2cnn(C)c2)c1 [Example 35, 3-isopropyl-N-(6-methyl-5-((2-(1-methyl-1H-pyrazol-4-yl)pyridin-4-yl)oxy)pyridin-2-yl)-2-oxoimidazolidine-1-carboxamide]	100 to 1000	10 to 100
CCN1CCN(C(=O)Nc2ccc(Oc3ccnc(-c4cnc(C)o4)c3)cn2)C1=O [Example 117, 3-ethyl-N-(5-((2-(2-methyloxazol-5-yl)pyridin-4-yl)oxy)pyridin-2-yl)-2-oxoimidazolidine-1-carboxamide]	> 1000	100 to 1000
Cc1nc(NC(=O)N2CCN(C3CCC(F)(F)CC3)C2=O)ccc1Oc1ccnc(-c2cnn(C)c2)c1 [Example 26, 3-(4,4-difluorocyclohexyl)-N-(6-methyl-5-((2-(1-methyl-1H-pyrazol-4-yl)pyridin-4-yl)oxy)pyridin-2-yl)-2-oxoimidazolidine-1-carboxamide]	> 1000	< 10
CCN1CCN(C(=O)Nc2cc(C)c(Oc3ccnc(-n4cnc(C)c4)c3)cn2)C1=O [Example 88, 3-ethyl-N-(4-methyl-5-((2-(4-methyl-1H-imidazol-1-yl)pyridin-4-yl)oxy)pyridin-2-yl)-2-oxoimidazolidine-1-carboxamide]	> 1000	10 to 100
COCCCN1CCN(C(=O)Nc2ccc(Oc3ccnc(-c4cnn(C)c4)c3)cn2)C1=O [Example 11, 3-(3-methoxypropyl)-N-(5-((2-(1-methyl-1H-pyrazol-4-yl)pyridin-4-yl)oxy)pyridin-2-yl)-2-oxoimidazolidine-1-carboxamide]	> 1000	10 to 100
Cn1cc(-c2cc(Oc3ccc(NC(=O)N4CCN(C(C)(C)C)C4=O)nc3)ccn2)cn1 [Example 34, 3-(tert-butyl)-N-(5-((2-(1-methyl-1H-pyrazol-4-yl)pyridin-4-yl)oxy)pyridin-2-yl)-2-oxoimidazolidine-1-carboxamide]	10 to 100	10 to 100
CCc1nc(NC(=O)N2CCN(CC(F)(F)F)C2=O)ccc1Oc1ccnc(-c2cnn(C)c2)c1 [Example 56, N-(6-ethyl-5-((2-(1-methyl-1H-pyrazol-4-yl)pyridin-4-yl)oxy)pyridin-2-yl)-2-oxo-3-(2,2,2-trifluoroethyl)imidazolidine-1-carboxamide]	> 1000	10 to 100
CCc1nc(NC(=O)N2CCN(C3CC3)C2=O)ccc1Oc1ccnc(-c2cnn(C)c2)c1 [Example 58, 3-cyclopropyl-N-(6-ethyl-5-((2-(1-methyl-1H-pyrazol-4-yl)pyridin-4-yl)oxy)pyridin-2-yl)-2-oxoimidazolidine-1-carboxamide]	> 1000	10 to 100
CCc1nc(NC(=O)N2CCN(C3CCCC3)C2=O)ccc1Oc1ccnc(-c2cnn(C)c2)c1 [Example 57, 3-cyclopentyl-N-(6-ethyl-5-((2-(1-methyl-1H-pyrazol-4-yl)pyridin-4-yl)oxy)pyridin-2-yl)-2-oxoimidazolidine-1-carboxamide]	> 1000	< 10
Cn1cc(-c2cc(Oc3ccc(NC(=O)N4CCN(C5CCOC5)C4=O)nc3)ccn2)cn1 (stereo in doubt) [Example 12, (S)—N-(5-((2-(1-methyl-1H-pyrazol-4-yl)pyridin-4-yl)oxy)pyridin-2-yl)-2-oxo-3-(tetrahydrofuran-3-yl)imidazolidine-1-carboxamide]	> 1000	10 to 100
CC(C)N1CCN(C(=O)Nc2ccc(Oc3ccnc(-c4cnn(C)c4)c3)cn2)C1=O [Example 36, 3-isopropyl-N-(5-((2-(1-methyl-1H-pyrazol-4-yl)pyridin-4-yl)oxy)pyridin-2-yl)-2-oxoimidazolidine-1-carboxamide]	100 to 1000	< 10
Cc1cc(-c2cc(Oc3ccc(NC(=O)N4CCN(C5CCOCC5)C4=O)nc3)ccn2)on1 [Example 7, N-(5-((2-(3-methylisoxazol-5-yl)pyridin-4-yl)oxy)pyridin-2-yl)-2-oxo-3-(tetrahydro-2H-pyran-4-yl)imidazolidine-1-carboxamide]	> 1000	10 to 100
Cc1nc(NC(=O)N2CCN(C3CCOCC3)C2=O)ccc1Oc1ccnc(-c2cnn(C)c2)c1 [Example 3, N-(6-methyl-5-((2-(1-methyl-1H-pyrazol-4-yl)pyridin-4-yl)oxy)pyridin-2-yl)-2-oxo-3-(tetrahydro-2H-pyran-4-yl)imidazolidine-1-carboxamide]	> 1000	10 to 100
Cn1cc(-c2cc(Oc3ccc(NC(=O)N4CCN(C5CCC(F)(F)CC5)C4=O)nc3)ccn2)cn1 [Example 25, 3-(4,4-difluorocyclohexyl)-N-(5-((2-(1-methyl-1H-pyrazol-4-yl)pyridin-4-yl)oxy)pyridin-2-yl)-2-oxoimidazolidine-1-carboxamide]	10 to 100	< 10
Cc1cc(NC(=O)N2CCN(C)C2=O)ncc1Oc1ccnc(-c2cnn(C)c2)c1 [Example 85, 3-methyl-N-(4-methyl-5-((2-(1-methyl-1H-pyrazol-4-yl)pyridin-4-yl)oxy)pyridin-2-yl)-2-oxoimidazolidine-1-carboxamide]	> 1000	10 to 100
[2H]C([2H])([2H])n1cc(-c2cc(Oc3ccc(NC(=O)N4CCN(CCOC)C4=O)nc3C)ccn2)cn1 [Example 39, 3-(2-methoxyethyl)-N-(6-methyl-5-((2-(1-(trideuteromethyl)-1H-pyrazol-4-yl)pyridin-4-yl)oxy)pyridin-2-yl)-2-oxoimidazolidine-1-carboxamide]	> 1000	100 to 1000
CC(=O)Nc1cc(Oc2ccc(NC(=O)N3CCN(C4CCOCC4)C3=O)nc2)ccn1 [Example 119, N-(5-((2-acetamidopyridin-4-yl)oxy)pyridin-2-yl)-2-oxo-3-(tetrahydro-2H-pyran-4-yl)imidazolidine-1-carboxamide]	100 to 1000	10 to 100
CN(C)C(=O)Nc1cc(Oc2ccc(NC(=O)N3CCN(C4CCOCC4)C3=O)nc2)ccn1 [Example 120, N-(5-((2-(3,3-dimethylureido)pyridin-4-yl)oxy)pyridin-2-yl)-2-oxo-3-(tetrahydro-2H-pyran-4-yl)imidazolidine-1-carboxamide]	10 to 100	10 to 100
CCN1CCN(C(=O)Nc2ccc(Oc3ccnc(-c4ccc(C5CCN(C)CC5)cc4)c3)c(C)n2)C1=O [Example 61, 3-ethyl-N-(6-methyl-5-((2-(4-(1-methylpiperidin-4-yl)phenyl)pyridin-4-yl)oxy)pyridin-2-yl)-2-oxoimidazolidine-1-carboxamide]	> 1000	< 10
COC[C@H](C)N1CCN(C(=O)Nc2ccc(Oc3ccnc(-c4cnn(C)c4)c3)cn2)C1=O [Example 16, (S)-3-(1-methoxypropan-2-yl)-N-(5-((2-(1-methyl-11H-pyrazol-4-yl)pyridin-4-yl)oxy)pyridin-2-yl)-2-oxoimidazolidine-1-carboxamide]	100 to 1000	10 to 100
Cc1ccc(-c2cc(Oc3ccc(NC(=O)N4CCN(C5CCOCC5)C4=O)nc3)ccn2)cn1 [Example 52, N-(5-((6′-methyl-[2,3′-bipyridin]-4-yl)oxy)pyridin-2-yl)-2-oxo-3-(tetrahydro-2H-pyran-4-yl)imidazolidine-1-carboxamide]	100 to 1000	10 to 100
Cc1nc(NC(=O)N2CCN(C3CCCCC3)C2=O)ccc1Oc1ccnc(-c2cnn(C)c2)c1 [Example 22, 3-cyclohexyl-N-(6-methyl-5-((2-(1-methyl-1H-pyrazol-4-yl)pyridin-4-yl)oxy)pyridin-2-yl)-2-oxoimidazolidine-1-carboxamide]	> 1000	< 10
COCCN1CCN(C(=O)Nc2ccc(Oc3ccnc(-c4cnn(C)c4)c3)cn2)C1=O [Example 10, 3-(2-methoxyethyl)-N-(5-((2-(1-methyl-11H-pyrazol-4-yl)pyridin-4-yl)oxy)pyridin-2-yl)-2-oxoimidazolidine-1-carboxamide]	> 1000	10 to 100
